What follows are substances tested on Xanthomonas campestris p.v. campestris (assay: Cross-streak culture screening for antagonistic bacteria). Conditions: cross application on potato dextrose-broth-agar medium, 25° C., 3 days.
Assay type: cell-based
Experimental: Filamentous fungi and bacteria (hereinafter referred to as “candidate microorganisms” in general) isolated from a seed or a soil is streaked on a same medium as that of the pathogenic microorganisms of the seed borne disease which is a target to be controlled in a dual or cross manner and are cultured for several days under a temperature suitable for growing the pathogenic microorganisms (dual culture). After the microorganism have been cultured, growth thereof are observed; then, the one which apparently controlled the growth of the pathogenic microorganisms by the candidate microorganism is selected as the effective microorganism which has an antagonistic property (Laboratory Guide for Plant Pathology and Microbiology, 459-474, Satoshi Wakimoto et al., Soft Science Inc., 1993).
Each type of the above-described seeds was shaken in a physiological saline solution (a distilled water solution containing 0.85 weight % of sodium chloride) having 2.5 times the weight of the seeds for 2.5 hours. Then, the solution was evenly streaked on an albumin-agar culture medium. In six days after streaking, a colony which has emerged was isolated and, then, streaked on a potato dextrose-broth-agar culture medium (available from Difco Laborarories, Mich., U.S.A.) in a cross application manner against Xanthomonas campestris p.v. campestris to be cultured at 25° C. […] As a result, three bacterial strains under names of TK-12, TK-151, and TK-185 were obtained. Taxonomic properties of these three strains are shown below in Table 1.

Row | Substance | control of growth of Xanthomonas campestris p.v. campestris
1 | Leclercia adecarboxylata TK-151 | controls growth of such Xanthomonas campestris p.v. campestris
2 | Pantoea sp. TK-185 | controls growth of such Xanthomonas campestris p.v. campestris
3 | Pantoea sp. TK-12 | controls growth of such Xanthomonas campestris p.v. campestris
